According to patent publication US20110020801A1, “Carboxylesterase-1 Polymorphisms and Methods of Use Therefor” (priority 2007, published 2011):
Where a chain is given by its changes, count along the chain named.

Assays:
[1] = Pharmacokinetic study of orally administered racemic MPH in normal volunteers; type: in vivo, human
Protocol: Analysis of Pharmacokinetic, Hemodynamic, and Statistical Data. Standard pharmacokinetic analyses were applied to the MPH data using WinNonLin software (Pharsight, Mountainview, Calif.) and are described in a previous publication.^10 The AUC, Cmax, and t1/2 were analyzed using the Extreme Studentized Deviate (ESD) single-outlier procedure^12 to determine whether the parameter measurements for the slow metabolizer constituted true statistical outliers. For each parameter, the ESD procedure confirmed the measurement as an outlier at the p<0.01 level. Because this procedure is known to be conservative, the data from the aberrant metabolizer were reassessed using a similar procedure with respect to the normal participants only.

[2] = target: T1, p.Gly143Glu CES1 (Homo sapiens, UniProt P23141, G143E); test: MPH hydrolysis to ritalinic acid by S9 of cells expressing p.Gly143Glu CES1 (HPLC); type: biochemical; settings: S9 500 μg/ml, even at very high S9 concentration (2 mg/ml); 37° C., 2 h
T1 construct: inserting a stop codon after CES1A1 gene to yield the constructs expressing CES1 without V5-His tag; expressed in transfected cells
T1 sequence (P23141 18-567 G143E/Y526T): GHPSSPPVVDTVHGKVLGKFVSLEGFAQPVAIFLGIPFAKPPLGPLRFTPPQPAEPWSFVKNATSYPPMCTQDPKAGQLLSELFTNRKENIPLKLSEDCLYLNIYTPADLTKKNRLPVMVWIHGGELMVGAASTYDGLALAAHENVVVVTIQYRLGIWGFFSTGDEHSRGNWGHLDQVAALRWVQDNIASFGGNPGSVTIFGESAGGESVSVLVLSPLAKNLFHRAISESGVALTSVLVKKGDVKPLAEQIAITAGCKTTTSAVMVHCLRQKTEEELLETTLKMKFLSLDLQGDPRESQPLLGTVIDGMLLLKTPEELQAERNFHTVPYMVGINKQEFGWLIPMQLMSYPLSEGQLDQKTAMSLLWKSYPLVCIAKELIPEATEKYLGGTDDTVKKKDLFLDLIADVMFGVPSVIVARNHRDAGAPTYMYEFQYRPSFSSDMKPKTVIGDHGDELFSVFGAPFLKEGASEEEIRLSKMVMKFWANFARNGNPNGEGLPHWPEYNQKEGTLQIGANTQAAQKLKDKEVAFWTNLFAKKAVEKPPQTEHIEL
From the text: (§1) The desired plasmid was designed such that the recombinant CES1 would be expressed in mammalian cells with a V5-His tag to facilitate detection and purification. Additionally, another plasmid was generated by inserting a stop codon after CES1A1 gene to yield the constructs expressing CES1 without V5-His tag. […] Thus, only untagged CES1 and its associated mutants were used in the enzymatic hydrolysis study. Two constructs of CES1 mutations, p.Gly143Glu and p.Asp260fs, were generated using a site-directed mutagenesis assay. All constructs were subjected to DNA sequencing analysis to confirm that the desired plasmids were obtained. The identified CES1A1 plasmids (WT, p.Gly143Glu, and p.Asp260fs) were co-transfected with pOG44 plasmid at a ratio of 1:10 into Flp-In™-293 cells using […] (Invitrogen, Carlsbad, Calif.). Additionally, the self-ligated pcDNA5/FRT/V5-His-TOPO® vector was included as a vector control. Twenty-four hours after transfection, cells were washed with PBS and fresh complete medium (Dulbecco's modified Eagle's medium containing 10% fetal bovine serum) was added. […]
(§2) After attaining approximately 95% confluence, cells were rinsed and harvested in PBS containing 10 mM HEPES (pH 7.4). […] The protein concentration was determined using a Pierce BCA assay kit (Rockford, Ill.).
(§3) For the study of MPH hydrolysis, the reaction was conducted in 1.5 mL eppendorf tubes with a final S9 concentration of 0.5 mg/mL at a total volume of 100 μL. […] Concentrations of the primary phase I MPH metabolite produced via hydrolysis, ritalinic acid (RA), was determined utilizing an established HPLC method described below.
(§4) Thus, following the enzymatic assay, the values determined for spontaneous PNP and RA hydrolysis were subtracted from the total PNP and RA production. […] All collected data were fit to the Michaelis-Menten equation, and kinetic parameters were calculated using nonlinear regression analysis with Graphpad Prism software (Graphpad Software Inc., San Diego, Calif.) […]

[3] = Hemodynamic measurements after MPH administration in normal volunteers; type: in vivo, human; settings: after 0.3 mg/kg MPH
From the text: The inventor considered the set of measures for each endpoint to be a multivariate vector, and assessed the Mahalanobis distance for subject's measurements. The Mahalanobis distance, a measure of distance from a central multivariate mean relative to the variance of the endpoints, is useful for identifying outliers via referral to the F distribution. This analysis assumes no explicit model of time effects on the vital signs, but recognizes the potential correlation between the repeated measures over time on each participant, and tests for simultaneous differences from the mean over the set of time points while controlling the Type I error rate. For each of the four endpoint vectors, the inventor tested the a priori hypothesis that the slow metabolizer's measurements were outliers by comparison to Wilks's critical values (α=0.0125, critical value: 13.8).^13 Because only testing outlier status for this single participant was tested, no Bonferroni corrections were made within participants; however, each test was performed at the Bonferroni-corrected α=0.0125 level to adjust for the four endpoints being tested. There were little differences in plasma MPH concentrations between the slow metabolizer and their study peers during the 0-1.5 h time frame (FIG. 6), which is likely due to a delay in tablet disintegration, dissolution and absorption. After this initial period MPH is subject to first-pass metabolism and hCES1 mediated stereoselective hydrolysis and the two concentration vs. time curves rapidly diverge from one another (FIGS. 2-3). Therefore, based on this finding and a visual examination of the data it was decided that a second analysis which excluded measurements taken during the 0-1.5 hr time points would be more appropriate.

[4] = target: T2, p.Asp260fs CES1 (Homo sapiens, UniProt P23141); test: MPH hydrolysis to ritalinic acid by S9 of cells expressing p.Asp260fs CES1 (HPLC); type: biochemical; settings: S9 500 μg/ml, even at very high S9 concentration (2 mg/ml); 37° C., 2 h
T2 construct: a frameshift mutation that alters residues 260-299 and causes early truncation at a premature stop codon; expressed in transfected cells
T2 sequence (P23141 with tags, fused parts or gaps): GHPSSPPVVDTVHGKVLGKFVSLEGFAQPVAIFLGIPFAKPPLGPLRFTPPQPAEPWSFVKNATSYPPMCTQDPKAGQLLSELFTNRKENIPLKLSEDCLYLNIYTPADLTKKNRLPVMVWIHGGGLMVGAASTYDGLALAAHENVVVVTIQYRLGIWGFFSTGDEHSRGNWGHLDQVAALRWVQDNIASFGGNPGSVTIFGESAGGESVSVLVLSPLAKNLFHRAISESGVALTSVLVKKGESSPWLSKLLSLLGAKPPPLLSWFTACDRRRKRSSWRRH
From the text: as §1, §2, §3, §4

[5] = Spontaneous hydrolysis in reaction buffer; type: physicochemical; settings: PBS containing 10 mM HEPES, pH 7.4
Protocol: Thus, following the enzymatic assay, the values determined for spontaneous PNP and RA hydrolysis were subtracted from the total PNP and RA production. […] All collected data were fit to the Michaelis-Menten equation, and kinetic parameters were calculated using nonlinear regression analysis with Graphpad Prism software (Graphpad Software Inc., San Diego, Calif.)

[6] = target: T2, p.Asp260fs CES1; test: Oseltamivir phosphate hydrolysis by p.Asp260fs hCES1 S9 (HPLC); type: biochemical; settings: measured by conversion to OC
[7] = target: T1, p.Gly143Glu CES1; test: Oseltamivir phosphate hydrolysis by p.Gly143Glu hCES1 S9 (HPLC); type: biochemical; settings: compared to WT enzyme
[8] = substrate: CCOC(=O)C1=C[C@@H](OC(CC)CC)[C@H](NC(C)=O)[C@@H](N)C1; test: Oseltamivir phosphate hydrolysis to oseltamivir carboxylate by WT hCES1 S9 (HPLC); type: biochemical, human; settings: other: OP conversion to OC, 37° C., 10 min
[9] = substrate: COC(=O)[C@H](c1ccccc1)[C@H]1CCCCN1; test: purified protein, by the assay type; settings: other: MPH hydrolysis, S9 0.5 mg/mL, 37° C., 2 hours, mean ± S.D. (n = 3)

CCOC(=O)C(c1ccccc1)C1CCCCN1 (stereo not shown) [ethylphenidate]
ethylphenidate concentrations after co-administration of methylphenidate with ethanol ([1]; every subject except the slow metabolizer): Detectable concentrations | ethylphenidate formation after methylphenidate and ethanol administered together ([1]; slow metabolizer): unable to form ethylphenidate

COC(=O)C(c1ccccc1)C1CCCCN1 (racemic) [MPH, methylphenidate]
Cmax of slow metabolizer relative to the mean of the other subjects ([1]; single oral 0.3 mg/kg racemic MPH, plasma): approximately 7 fold | catalytic activity towards MPH hydrolysis [2]: too low to be determined | Diastolic Blood Pressure, Maximum Value, Mean (SD) ([3]; 19 study peers): 68 (8) | Mean Arterial Pressure, Maximum Value, Mean (SD) ([3]; 19 study peers): 85 (8) | Pulse, Maximum Value, Mean (SD) ([3]; 19 study peers): 74 (11) | Systolic Blood Pressure, Maximum Value, Mean (SD) ([3]; 19 study peers): 120 (10) | Diastolic Blood Pressure, Maximum Value, Outlier ([3]; slow metabolizer): 78 | Mean Arterial Pressure, Maximum Value, Outlier ([3]; slow metabolizer): 97 | Pulse, Maximum Value, Outlier ([3]; slow metabolizer): 93 | Systolic Blood Pressure, Maximum Value, Outlier ([3]; slow metabolizer): 138 | catalytic activity towards MPH hydrolysis [4]: too low to be determined | stability in reaction buffer [5]: spontaneously hydrolyzed

CCOC(=O)C1=C[C@@H](OC(CC)CC)[C@H](NC(C)=O)[C@@H](N)C1 [OP, oseltamivir phosphate]
enzymatic activity on oseltamivir hydrolysis [6]: did not result in any detectable hydrolysis | enzymatic activity on oseltamivir hydrolysis ([6]; listed as oseltamivir): No catalytic activity | enzymatic activity on oseltamivir hydrolysis [7]: Profoundly decreased enzymatic activity

B1: WT hCES1 (Homo sapiens) (protein)
chain: T1 sequence (P23141 18-567 G143E/Y526T) with E126G, T509Y
notes: inserting a stop codon after CES1A1 gene to yield the constructs expressing CES1 without V5-His tag; expressed in transfected cells
Km [8]: 1381.6 µM | Vmax [8]: 145.3 nmole/min/mg protein

B2: WT CES1 (Homo sapiens) (protein)
chain: T1 sequence (P23141 18-567 G143E/Y526T) with E126G, T509Y
Km [9]: 663.5 ± 210.0 µM | Vmax [9]: 177.2 ± 29.6 pmole/min/mg protein | Vmax/Km [9]: 0.27 μl/min/mg protein
